# According to ChEMBL document CHEMBL4706474, “Tetrahydro-2-naphthyl and 2-Indanyl Triazolopyrimidines Targeting Plasmodium falciparum Dihydroorotate Dehydrogenase Display Potent and Selective Antimalarial Activity” (J Med Chem, 2016):
# Key:
# Plasmodium falciparum [1] = experiment: Antiplasmodial activity against Plasmodium falciparum 3D7 infected in po dosed NSG mouse assessed as reduction in parasitemia administered once daily for 4 consecutive days starting from day 3 post-infection and measured 24 hrs post last dose by flow cytometric analysis; format: functional; details: 3D7, po, 96 h, time 4 day
# [2] = Unbound Cmax in Swiss mouse at 20 mg/kg, po administered as single dose via gavage measured over 24 hrs by LC-MS analysis; format: ADME, organism-based; details: in vivo
# [3] = Unbound AUC (0 to infinity) in Sprague-Dawley rat at 1.9 mg/kg, iv by LC-MS analysis; format: ADME, organism-based; details: in vivo
# [4] = Unbound AUC (0 to infinity) in Sprague-Dawley rat at 18.2 mg/kg, po measured over 24 hrs by LC-MS analysis; format: ADME, organism-based; details: in vivo
# [5] = Inhibition of N-terminal His6-tagged Plasmodium vivax DHODH expressed in Escherichia coli BL21 using L-DHO as substrate and CoQ as co-substrate by DCIP dye based spectrophotometric assay
# Cytochrome P450 2C19 = Cytochrome P450 2C19 (Homo sapiens, UniProt P33261); experiment: Inhibition of CYP2C19 in human liver microsomes using isoform-specific probe substrates in presence of NADPH-generating system by LC-MS analysis; format: ADME
# [6] = Solubility of compound in FaSSIF at pH 6.5 measured after 5 to 6 hrs by HPLC-UV based analysis
# Plasmodium falciparum [7] = experiment: Antiplasmodial activity against Plasmodium falciparum 3D7 infected in RBC assessed as reduction in parasitemia incubated for 72 hrs by SYBR green dye-based assay; format: functional, organism-based; details: rbc
# [8] = Protein binding in human plasma assessed as bound fraction by LC-MS analysis based ultracentrifugation assay; format: ADME, cell-free; details: read-out: PPB (converted)
# [9] = Lipophilicity, logD of the compound at pH 7.4; format: physicochemical; details: buffer
# [10] = Cmax in Sprague-Dawley rat at 18.2 mg/kg, po measured over 24 hrs by LC-MS analysis; format: ADME, organism-based; set-up: route oral, dose 18.2 mg/kg, time >24; details: in vivo
# [11] = Protein binding in rat plasma assessed as bound fraction by LC-MS analysis based ultracentrifugation assay; format: ADME, cell-free; details: read-out: PPB (converted)
# [12] = Oral bioavailability in Sprague-Dawley rat at 18.2 mg/kg measured over 24 hrs by LC-MS analysis; format: ADME, organism-based; details: in vivo
# [13] = Unbound clearance in Sprague-Dawley rat at 1.9 mg/kg, iv administered as infusion for 10 mins by LC-MS analysis; format: ADME, organism-based; details: in vivo
# [14] = Volume of distribution at steady state in Sprague-Dawley rat at 1.9 mg/kg, iv administered as infusion for 10 mins by LC-MS analysis; format: ADME, organism-based; details: in vivo
# [15] = Intrinsic clearance in mouse liver microsomes at 1 uM by LC-MS analysis; format: ADME, Microsome
# [16] = Intrinsic clearance in rat liver microsomes assessed per mg protein at 1 uM by LC-MS analysis; format: ADME, Microsome; details: microsomes, 1 µM
# [17] = Apparent half-life in Sprague-Dawley rat at 1.9 mg/kg, iv administered as infusion for 10 mins by LC-MS analysis; format: ADME, organism-based; details: in vivo, read-out: t1/2(app) (converted)
# [18] = Unbound volume of distribution at steady state in Sprague-Dawley rat at 1.9 mg/kg, iv administered as infusion for 10 mins by LC-MS analysis; format: ADME, organism-based; details: in vivo
# [19] = Apparent half-life in Swiss mouse at 20 mg/kg, po administered as single dose via gavage measured over 24 hrs by LC-MS analysis; format: ADME, organism-based; details: in vivo
# [20] = AUC (0 to infinity) in Sprague-Dawley rat at 18.2 mg/kg, po measured over 24 hrs by LC-MS analysis; format: ADME, organism-based; set-up: route oral, dose 18.2 mg/kg, time >24; details: in vivo
# [21] = Cmax in Swiss mouse at 20 mg/kg, po administered as single dose via gavage measured over 24 hrs by LC-MS analysis; format: ADME, organism-based; set-up: route oral, dose 20 mg/kg, time >24; details: in vivo
# [22] = Solubility of compound in FeSSIF at pH 5 measured after 5 to 6 hrs by HPLC-UV based analysis; format: physicochemical; details: simulated gi fluid, time 5-6 hrs
# [23] = AUC (0 to infinity) in Swiss mouse at 20 mg/kg, po administered as single dose via gavage measured over 24 hrs by LC-MS analysis; format: ADME, organism-based; set-up: route oral, dose 20 mg/kg, time >24; details: in vivo
# [24] = Inhibition of N-terminal His6-tagged Plasmodium falciparum DHODH expressed in Escherichia coli BL21 using L-DHO as substrate and CoQ as co-substrate by DCIP dye based spectrophotometric assay
# [25] = Kinetic solubility of compound in phosphate buffer at pH 6.5 measured after 30 mins by HPLC-UV based analysis; format: physicochemical; details: phosphate buffer, pH 6.5, read-out: Kinetic_solubility
# [26] = Unbound Cmax in Sprague-Dawley rat at 18.2 mg/kg, po measured over 24 hrs by LC-MS analysis; format: ADME, organism-based; details: in vivo
# [27] = Elimination half-life in Swiss mouse at 20 mg/kg, po administered as single dose via gavage measured over 24 hrs by LC-MS analysis; format: ADME, organism-based; details: in vivo, read-out: beta t1/2 (converted)
# [28] = Protein binding in Swiss mouse plasma at 20 mg/kg, po administered as single dose via gavage measured over 24 hrs by LC-MS analysis; format: ADME, organism-based; details: read-out: PPB (converted)
# [29] = Protein binding in Sprague-Dawley rat plasma at 1.9 mg/kg, iv administered as infusion for 10 mins by LC-MS analysis; format: ADME, organism-based; details: read-out: PPB (converted)
# in vivo = details: Sprague-Dawley, rat, po, 18.2 mg/kg
# [30] = Intrinsic clearance in human pooled liver microsomes assessed per mg protein at 1 uM by LC-MS analysis; format: ADME, Microsome; details: microsomes, 1 µM
# [31] = Unbound AUC (0 to infinity) in Swiss mouse at 20 mg/kg, po administered as single dose via gavage measured over 24 hrs by LC-MS analysis; format: ADME, organism-based; details: in vivo
# [32] = Inhibition of N-terminal His6-tagged dog DHODH expressed in Escherichia coli BL21 using L-DHO as substrate and CoQ as co-substrate by DCIP dye based spectrophotometric assay; set-up: species or system Canis lupus familiaris
# [33] = Tmax in Swiss mouse at 20 mg/kg, po administered as single dose via gavage measured over 24 hrs by LC-MS analysis; format: ADME, organism-based; details: in vivo
# [34] = AUC (0 to infinity) in Sprague-Dawley rat at 1.9 mg/kg, iv administered as infusion for 10 mins by LC-MS analysis; format: ADME, organism-based; set-up: route intravenous, dose 1.9 mg/kg, time 10 min; details: in vivo
# Cytochrome P450 2C19, sequence (P33261 whole entry, canonical isoform): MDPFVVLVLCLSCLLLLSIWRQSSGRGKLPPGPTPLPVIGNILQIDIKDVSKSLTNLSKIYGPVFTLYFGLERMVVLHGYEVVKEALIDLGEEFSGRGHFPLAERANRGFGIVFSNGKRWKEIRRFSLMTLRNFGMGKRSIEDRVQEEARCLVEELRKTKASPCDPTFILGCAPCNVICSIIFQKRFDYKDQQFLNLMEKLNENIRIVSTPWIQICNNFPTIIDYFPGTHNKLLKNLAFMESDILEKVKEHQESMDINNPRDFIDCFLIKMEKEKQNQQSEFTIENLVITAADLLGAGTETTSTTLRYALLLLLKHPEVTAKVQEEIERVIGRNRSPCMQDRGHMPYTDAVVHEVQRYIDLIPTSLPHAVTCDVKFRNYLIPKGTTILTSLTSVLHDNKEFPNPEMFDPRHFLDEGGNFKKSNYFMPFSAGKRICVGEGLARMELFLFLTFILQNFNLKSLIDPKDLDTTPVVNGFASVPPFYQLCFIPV
smiles,measurement,setting,value
Cc1cc(NC2CCc3cc(Cl)ccc3C2)n2nc(C(C)(F)F)nc2n1 (stereo in doubt),ED90,Plasmodium falciparum [1],> 30 mg/kg
same,fCmax,[2],0.06 µM
same,fAUC,[3],0.19 µM·h
same,fAUC,[4],1.82 µM·h
same,IC50,[5],0.029 µM
same,IC50,Cytochrome P450 2C19,> 20 µM
same,solubility,[6],47 µg/mL
same,EC50,Plasmodium falciparum [7],0.0038 µM
same,fraction unbound,[8],0.012
same,logD,[9],3.9
same,Cmax,[10],23.8 µM
same,fraction unbound,[11],0.008
same,bioavailability,[12],100%
same,CL free,[13],438 mL/min/kg
same,Vdss,[14],1.5 L/kg
same,intrinsic clearance,[15],44 µL/min
same,Intrinsic clearance in rat liver microsomes (uL/min/mg protein),[16],33 µL/min
same,half-life,[17],7.1 h
same,fVdss,[18],188 L/kg
same,t1/2(app),[19],1.9 h
same,AUC(0-inf),[20],227 µM·h
same,Cmax,[21],7 µM
same,solubility,[22],211 µg/mL
same,AUC,[23],19.7 µM·h
same,IC50,[24],0.0037 µM
same,solubility kinetic at 0.5 h,[25],3.1 µg/mL
same,fCmax,[26],0.19 µM
same,half-life,[27],2 h
same,fraction unbound at 24 h,[28],0.008
same,fraction unbound at 10 min,[29],0.008
same,Tmax at 24 h,in vivo,4 h
same,microsomal intrinsic clearance,[30],< 7 µL/min
same,fAUC,[31],0.16 µM·h
same,IC50,[32],> 100 µM
same,Tmax,[33],1 h
same,AUC(0-inf),[34],24 µM·h
